According to ChEMBL document CHEMBL3044766, “Synthesis, antitubercular and antifungal activities of heteroaryl-substituted oxiranes derived from BaylisHillman adducts” (2012):
The source made the active and inactive calls. The calls are words filed in the database; no cut-off is given here.

Experiments:
[1] = system: Aspergillus fumigatus; experiment: Antifungal activity against Aspergillus fumigatus at 100 ug/ml after 24 hr by disc diffusion method; assay type: functional; conditions: read-out: DIZ
[2] = system: Candida albicans; experiment: Antifungal activity against Candida albicans at 100 ug/ml after 24 hr by disk diffusion method; assay type: functional; conditions: read-out: DIZ
[3] = system: Mycobacterium tuberculosis; experiment: Growth inhibition of Mycobacterium tuberculosis H37Rv at 10 ug/ml after 4 weeks by Lowenstein-Jensen method; assay type: functional, organism-based
[4] = system: Mycobacterium tuberculosis; experiment: Growth inhibition of Mycobacterium tuberculosis H37Rv at 1 ug/ml after 4 weeks by Lowenstein-Jensen method; assay type: functional, organism-based
[5] = system: Mycobacterium tuberculosis; experiment: Growth inhibition of Mycobacterium tuberculosis H37Rv at 100 ug/ml after 4 weeks by Lowenstein-Jensen method; assay type: functional, organism-based

SMILES	zone of inhibition at 100 µg/mL [1] [mm]	zone of inhibition at 100 µg/mL [2] [mm]	growth inhibition (GI) [3]	growth inhibition (GI) [4]	growth inhibition (GI) [5]
CCOC(=O)C1(C(O)c2ccc[nH]2)CO1 (stereo not given)	10	10	Active	Active	Active
CCOC(=O)C1(C(O)c2ccco2)CO1 (stereo not given)	9	8	Active	Active	Active
COC(=O)C1(C(O)c2ccco2)CO1 (stereo not given)	8	7	Active	Active	Active
COC(=O)C1(C(O)c2cccs2)CO1 (stereo not given)	12	12	Active	Active	Active
NC(=O)c1cnccn1			Active	Active	Active
COC(=O)C1(C(O)c2ccc[nH]2)CO1 (stereo not given)	12	9	Active	Active	Active
CCOC(=O)C1(C(O)c2cccs2)CO1 (stereo not given)	10	9	Active	Active	Active
Clc1ccccc1C(c1ccccc1)(c1ccccc1)n1ccnc1 [CLOTRIMAZOLE]	21	20			
